“Also recorded” adds a separate entry of the source. Like-named read-outs stand apart in the source and are kept apart here.
How the values were obtained:
[1] = target: LAR-oxidized (Leukocyte common antigen-related, LAR) (Homo sapiens, UniProt P10586); assay: RPTP assay, standard assay conditions: phosphatase activity of oxidized LAR (DiFMUP substrate, TCEP reduction); type: biochemical
Description: (§1) Leukocyte common antigen-related (LAR) and PTPσ were used as illustrative type IIa RPTPs. Illustratively, purified LAR (100 nM) was mixed with H2O2 (2 mM) in phosphatase assay buffer (50 mM HEPES, pH 7.0, 100 mM NaCl, 0.1% BSA) at room temperature for 10 minutes. Excess H2O2 was removed with a Zeba™ Desalting Column (Thermo Scientific) equilibrated in the assay buffer without any reducing agent. Phosphatase activity was measured for each protein sample using 6,8-difluoro-4-methylumbiliferyl phosphate (DiFMUP) as the substrate, with or without 5 mM Tris(2-carboxyethyl)phosphine hydrochloride (TCEP). Activity of the oxidized sample was compared to that of the untreated (unoxidized) sample in the presence of 5 mM TCEP.
(§2) LAR-OX (10 nM) was incubated with compounds (0.1 mM) for varying lengths of time and the phosphatase activity was monitored using DiFMUP as substrate following reduction of the PTP with TCEP (5 mM). TCEP was not removed before adding DiFMUP. DiFMUP was added right after TCEP and the activity was followed continuously for 60 minutes. […] The above protocol was used to test the activity of other phosphatases (PTP1B, PTPσ, SHP2, PTPα, PTEN, and JSP1).

[2] = test system: C2C12 cells; assay: Cell vitality under the MuSK phosphorylation experimental condition; type: cell-based, mouse; settings: C2C12, experimental condition of FIG. 3
[3] = target: PTPσ-oxidized (Homo sapiens, UniProt Q13332); assay: RPTP assay, standard assay conditions: phosphatase activity of oxidized PTPσ; type: biochemical
Sequence of PTPσ-oxidized (Q13332 30-1948): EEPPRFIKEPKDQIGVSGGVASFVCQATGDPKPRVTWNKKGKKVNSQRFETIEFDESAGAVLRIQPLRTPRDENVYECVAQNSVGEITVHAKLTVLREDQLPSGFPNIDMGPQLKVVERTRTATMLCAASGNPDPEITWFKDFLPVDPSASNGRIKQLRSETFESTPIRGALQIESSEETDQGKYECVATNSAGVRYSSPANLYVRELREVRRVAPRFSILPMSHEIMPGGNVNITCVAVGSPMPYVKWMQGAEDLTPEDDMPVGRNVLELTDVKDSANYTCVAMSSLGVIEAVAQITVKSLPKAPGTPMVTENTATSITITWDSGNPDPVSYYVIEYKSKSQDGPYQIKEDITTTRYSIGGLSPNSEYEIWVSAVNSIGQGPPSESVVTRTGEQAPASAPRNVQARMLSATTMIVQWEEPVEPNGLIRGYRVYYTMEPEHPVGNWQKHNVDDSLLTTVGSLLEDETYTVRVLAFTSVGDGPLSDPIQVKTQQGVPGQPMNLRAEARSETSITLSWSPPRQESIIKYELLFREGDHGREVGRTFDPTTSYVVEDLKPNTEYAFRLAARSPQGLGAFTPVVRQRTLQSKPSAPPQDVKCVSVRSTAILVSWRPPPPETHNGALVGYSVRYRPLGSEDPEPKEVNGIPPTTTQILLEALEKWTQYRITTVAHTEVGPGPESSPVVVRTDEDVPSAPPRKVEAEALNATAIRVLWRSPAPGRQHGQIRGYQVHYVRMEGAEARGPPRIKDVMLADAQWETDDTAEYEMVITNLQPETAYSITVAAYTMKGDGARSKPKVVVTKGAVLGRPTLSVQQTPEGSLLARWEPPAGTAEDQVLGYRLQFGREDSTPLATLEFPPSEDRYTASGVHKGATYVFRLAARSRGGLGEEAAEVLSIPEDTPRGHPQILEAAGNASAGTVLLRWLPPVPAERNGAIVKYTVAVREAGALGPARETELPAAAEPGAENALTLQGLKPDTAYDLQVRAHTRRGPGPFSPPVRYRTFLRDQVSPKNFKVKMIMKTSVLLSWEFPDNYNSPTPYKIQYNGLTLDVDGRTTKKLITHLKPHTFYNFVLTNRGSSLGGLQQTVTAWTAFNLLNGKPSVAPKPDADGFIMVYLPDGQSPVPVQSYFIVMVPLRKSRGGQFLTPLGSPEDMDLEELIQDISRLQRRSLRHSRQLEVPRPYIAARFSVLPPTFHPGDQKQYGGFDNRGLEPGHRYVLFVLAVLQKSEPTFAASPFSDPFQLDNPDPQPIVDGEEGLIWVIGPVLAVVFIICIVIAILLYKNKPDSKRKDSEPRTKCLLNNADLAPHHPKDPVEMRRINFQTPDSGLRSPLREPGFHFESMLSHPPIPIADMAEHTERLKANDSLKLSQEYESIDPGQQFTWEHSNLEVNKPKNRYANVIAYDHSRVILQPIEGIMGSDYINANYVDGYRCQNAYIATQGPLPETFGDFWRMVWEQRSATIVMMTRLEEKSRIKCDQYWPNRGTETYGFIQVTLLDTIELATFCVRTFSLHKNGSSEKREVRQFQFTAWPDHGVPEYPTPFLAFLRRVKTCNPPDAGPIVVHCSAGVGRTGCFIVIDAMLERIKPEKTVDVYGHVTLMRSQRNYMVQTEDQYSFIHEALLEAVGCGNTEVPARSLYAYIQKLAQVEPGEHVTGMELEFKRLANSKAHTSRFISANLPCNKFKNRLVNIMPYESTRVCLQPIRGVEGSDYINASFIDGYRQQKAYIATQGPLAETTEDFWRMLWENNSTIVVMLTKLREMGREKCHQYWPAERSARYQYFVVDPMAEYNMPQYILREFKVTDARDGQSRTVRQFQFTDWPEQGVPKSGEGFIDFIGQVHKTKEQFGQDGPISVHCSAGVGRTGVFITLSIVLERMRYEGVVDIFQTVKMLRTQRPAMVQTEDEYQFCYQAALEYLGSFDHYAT
Description: as §1, §2

[4] = test system: MuSK phosphorylation (LAR dephosphorylating MuSK) in C2C12 myotubes; assay: MuSK tyrosine phosphorylation in agrin-stimulated C2C12 myotubes (anti-pTyr immunoprecipitation, anti-MuSK blot); type: cell-based, mouse
Description: C2C12 cells serum starved (8 hours) and then treated with CL-37 for 1 hour. Following which, cells were stimulated with Agrin (10 nM) for varying lengths of time (0-60 minutes). The cells were lysed and lysates were used to immunoprecipitate tyrosine phosphorylated proteins using 4G10® (05-321 from EMD Milliooire Corp. and PY20 (such as ab10321 fromabcam Plc) antibodies for 90 minutes at 4 C. The immunocomplexes were washed and resolved on SDS gels and immunoblotted using anti-MUSK antibody. For the immunoprecipitation experiments, 1 mg of total cell lysate was incubated with anti-pTyr antibodies at 4° C. for 90 minutes. The interacting protein complexes were immunoprecipitated after incubating the lysate-antibody mixture with protein A/G Sepharose® at 4° C. for 30 minutes. After immunoprecipitation, Sepharose® beads were washed three times at 4° C. with wash buffer (PBS, pH 7.4, 0.05% BSA, 0.05% Tween®-20 and protease inhibitors). Complexes were separated by SDS-PAGE and immunoblotted using anti-MUSK antibody.

[5] = Stability of difluoroborate compounds using 19F and 11B NMR; settings: acetonitrile-d3 alone and 80% acetonitrile-d3/20% D2O; up to seven days; room temperature
[6] = Table 2, Formula III, R1 and R2 para to boron, read-out: LAR-ox Ki
[7] = FIG. 1, oxidized form, 0.1 to 100 μM compound
[8] = Table 1, Formula II, potassium salt, R1 and R2 para to boron, read-out: LAR-ox Ki
[9] = FIG. 4, assay similar to FIG. 3, agrin stimulation
[10] = Table 3, Formula IV, read-out: LAR-ox Ki

Sequence of LAR-oxidized (Leukocyte common antigen-related, LAR) (P10586 30-1907): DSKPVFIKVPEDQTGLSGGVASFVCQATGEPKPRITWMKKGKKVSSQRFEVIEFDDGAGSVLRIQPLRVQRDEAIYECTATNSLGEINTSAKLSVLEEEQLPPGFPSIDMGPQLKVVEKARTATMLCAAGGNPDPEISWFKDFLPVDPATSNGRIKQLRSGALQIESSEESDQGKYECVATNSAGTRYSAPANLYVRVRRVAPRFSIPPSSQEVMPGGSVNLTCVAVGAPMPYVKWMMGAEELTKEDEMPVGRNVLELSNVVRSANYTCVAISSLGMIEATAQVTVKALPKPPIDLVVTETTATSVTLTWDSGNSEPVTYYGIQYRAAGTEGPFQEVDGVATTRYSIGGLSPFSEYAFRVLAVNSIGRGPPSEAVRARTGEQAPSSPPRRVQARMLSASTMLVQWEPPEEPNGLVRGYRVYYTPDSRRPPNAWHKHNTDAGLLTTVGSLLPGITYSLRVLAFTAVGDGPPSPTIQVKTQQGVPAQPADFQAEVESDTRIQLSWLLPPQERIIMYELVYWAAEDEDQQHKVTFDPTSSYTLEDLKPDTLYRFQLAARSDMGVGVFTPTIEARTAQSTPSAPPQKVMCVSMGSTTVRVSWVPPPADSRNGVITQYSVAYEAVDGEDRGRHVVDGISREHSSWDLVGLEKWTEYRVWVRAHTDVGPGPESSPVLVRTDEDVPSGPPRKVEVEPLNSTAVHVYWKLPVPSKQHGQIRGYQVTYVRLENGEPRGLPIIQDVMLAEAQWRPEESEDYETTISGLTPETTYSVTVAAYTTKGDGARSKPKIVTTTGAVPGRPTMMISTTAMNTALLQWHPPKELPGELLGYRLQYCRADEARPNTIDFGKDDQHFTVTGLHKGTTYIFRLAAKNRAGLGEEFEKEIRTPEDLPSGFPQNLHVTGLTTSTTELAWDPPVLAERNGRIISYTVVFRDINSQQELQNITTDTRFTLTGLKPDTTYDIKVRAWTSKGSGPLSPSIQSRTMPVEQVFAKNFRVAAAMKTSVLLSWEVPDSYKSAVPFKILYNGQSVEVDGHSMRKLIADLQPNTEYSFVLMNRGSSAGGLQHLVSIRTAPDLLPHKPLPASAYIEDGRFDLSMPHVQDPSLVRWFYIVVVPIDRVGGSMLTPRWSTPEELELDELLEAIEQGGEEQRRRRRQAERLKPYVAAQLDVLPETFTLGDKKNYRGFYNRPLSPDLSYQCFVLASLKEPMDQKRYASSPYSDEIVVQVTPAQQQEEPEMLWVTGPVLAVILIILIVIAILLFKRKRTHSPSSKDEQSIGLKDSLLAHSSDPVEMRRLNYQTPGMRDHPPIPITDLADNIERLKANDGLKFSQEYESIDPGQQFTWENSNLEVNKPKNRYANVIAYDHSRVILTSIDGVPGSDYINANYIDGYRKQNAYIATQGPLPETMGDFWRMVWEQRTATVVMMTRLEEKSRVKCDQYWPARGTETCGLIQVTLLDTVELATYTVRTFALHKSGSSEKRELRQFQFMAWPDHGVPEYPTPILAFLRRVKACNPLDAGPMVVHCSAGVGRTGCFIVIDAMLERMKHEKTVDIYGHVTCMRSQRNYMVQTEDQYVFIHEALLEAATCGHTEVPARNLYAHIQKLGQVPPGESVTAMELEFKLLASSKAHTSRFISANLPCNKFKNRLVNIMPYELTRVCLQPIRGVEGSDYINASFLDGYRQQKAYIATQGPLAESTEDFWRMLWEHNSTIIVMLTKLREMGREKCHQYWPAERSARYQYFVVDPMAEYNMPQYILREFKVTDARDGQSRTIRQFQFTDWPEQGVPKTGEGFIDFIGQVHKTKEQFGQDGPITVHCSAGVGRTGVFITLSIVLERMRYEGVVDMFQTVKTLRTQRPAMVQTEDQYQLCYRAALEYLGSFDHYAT

SMILES: OB(c1ccccc1)c1ccccc1 [CL-30]
- Ki [1, 6]: 20 µM

SMILES: F[B-](F)(c1ccccc1)c1ccccc1 [CL-37]
- phosphatase activity of LAR (inhibition) [1, 7]: most actively inhibited
- Ki [1, 8]: 5 µM
- effect on cell vitality [2]: did not exhibit an adverse effect on cell vitality
- phosphatase activity of PTP-sigma (inhibition) [3, 7]: most actively inhibited
- Ki ([3]; read-out: PTPσ-oxidized Ki): 4 µM
- phosphorylation level of MuSK versus control ([4]; FIG. 3, CL-37 5 μM, 1 hour pretreatment, agrin 10 nM, 0-60 minutes): significantly higher than the control; also recorded: inhibits LAR from dephosphorylating MuSK
- phosphorylation level of MuSK versus control [4, 9]: higher phosphorylation; also recorded: enhance the phosphorylation level of MUSK

SMILES: C=CB(O)c1ccccc1 [CL-49]
- Ki ([1]; read-out: LAR-oxidized Ki): > 1000 µM

SMILES: COc1ccc([B-](F)(F)c2ccc(OC)cc2)cc1 [CL-60]
- Ki [1, 8]: > 1000 µM
- Ki ([1]; read-out: LAR-oxidized Ki): > 1000 µM

SMILES: F[B-](F)(c1ccc(Cl)cc1)c1ccc(Cl)cc1 [CL-61]
- Ki [1, 8]: 4 µM

SMILES: Fc1ccc([B-](F)(F)c2ccc(F)cc2)cc1 [CL-65]
- Ki [1, 8]: 4 µM

SMILES: F[B-](F)(F)c1ccc(-c2ccccc2)cc1 [CL-70]
- Ki ([1]; read-out: LAR-oxidized Ki): > 1000 µM

SMILES: OB(c1ccc(F)cc1)c1ccc(-c2ccccc2)cc1 [CL-73-2]
- Ki [1, 6]: 1 µM
- phosphorylation level of MuSK versus control [4, 9]: higher phosphorylation; also recorded: enhance the phosphorylation level of MUSK

SMILES: Fc1ccc([B-](F)(F)c2ccc(-c3ccccc3)cc2)cc1 [CL-76]
- Ki [1, 8]: 1 µM
- Ki ([1]; read-out: LAR-oxidized Ki): 1 µM
- phosphorylation level of MuSK versus control [4, 9]: higher phosphorylation; also recorded: enhance the phosphorylation level of MUSK

SMILES: F[B-](F)(c1ccc(Cl)cc1)c1ccc(-c2ccccc2)cc1 [CL-83]
- hydrolysis or degradation by 19F and 11B NMR [5]: no hydrolysis or degradation

SMILES: OB1OCc2ccccc21 [Compound B-1]
- Ki ([1]; read-out: LAR-oxidized Ki): > 1000 µM
- Ki [3]: > 1000 µM

SMILES: Nc1ccc2c(c1)COB2O [Compound B-2]
- Ki ([1]; read-out: LAR-oxidized Ki): > 1000 µM
- Ki ([3]; read-out: PTPσ-oxidized Ki): > 1000 µM

SMILES: OB1OCCc2cc(F)ccc21 [Compound B-5]
- Ki [1, 10]: > 1000 µM
- Ki ([1]; read-out: LAR-oxidized Ki): > 1000 µM
- Ki ([3]; read-out: PTPσ-oxidized Ki): > 1000 µM

SMILES: OB1OCc2cc(F)ccc21 [Compound B-7]
- Ki ([1]; read-out: LAR-oxidized Ki): > 1000 µM
- Ki ([3]; read-out: PTPσ-oxidized Ki): > 1000 µM

SMILES: Nc1ccc2c(c1)B(O)OCC2 [Compound B-14]
- Ki [1, 10]: 57 µM
- Ki ([3]; read-out: PTPσ-oxidized Ki): 100 µM

SMILES: OB1OCCc2ccccc21 [Compound S-4]
- Ki [1, 10]: 500 µM

SMILES: O=C(Nc1ccc2c(c1)B(O)OCC2)c1ccc(F)cc1 [Compound S-6]
- Ki [1, 10]: > 1000 µM
- Ki ([1]; read-out: LAR-oxidized Ki): > 1000 µM
